Results reported in patent publication US20220017833A1, “Methods and Compositions for Scavenging Sulfides from Hydrocarbon Fluids and Aqueous Streams” (Nexgen Oilfield Chemicals, LLC, priority 2019, published 2022).

Columns and labels:
[1] = Long Reaction Time Capacity Test; conditions: 20 g test
Text: Referring now to FIG. 1, therein is schematically depicted a sulfide scavenger testing system 100 comprising a gas source 2, a flow regulator 4, gas treatment vessel 6, and a sulfide measurement device 8. In one testing embodiment, gas (not shown) is flowed from gas source 2 via gas feed piping 10 into flow regulator 4, which regulates gas flow to gas treatment vessel 6 via regulated gas feed piping 12. The regulated gas flows into gas treatment vessel 6 via a bottom inlet 14 thereof, where it comes into contact with a volume of liquid 16 comprising a sulfide scavenger system (not separately labeled). The gas, having been treated by the liquid, flows out of a top end 18 of gas treatment vessel 6 and flows into sulfide measurement device 8 via treated gas outlet piping 20.
In one embodiment, the gas contained in gas source 2 consists substantially of about 15% H2S, and about 3% CO2, with the remainder being Methane. In one embodiment, gas flow from the flow regulator 4 is controlled such that the gas is flowed into the gas treatment vessel 6 at a flow rate of 100 mL/min. up to 500 mL/min. In one embodiment, a gas sparging device, such as a fine pore frit (not shown), is utilized to better distribute the gas into the scavenger liquid. In one embodiment, the gas treatment vessel 6 contains about 20 g of a liquid H2S scavenger, such as one or more diaminols/diaminacetals in a chemical system as described above. In one aspect, to the extent possible, H2S and/or CO2 are scavenged from the gas by the scavenger and the treated (“sweet”) gas exits top end 18 of treatment vessel 6. In one embodiment, sulfide measurement device 8 monitors the concentration of H2S leaving treatment vessel 6. in the gas phase. In other embodiments (not shown), a CO2 measurement device may be similarly employed to monitor the concentration of CO2 leaving treatment vessel 6 in the gas phase.
In one embodiment, gas is flowed through sulfide scavenger testing system 100 until the outlet H2S concentration reaches a 4,000 ppm target, at which point the test is concluded. This relative time duration before the target is reached is used to compare H2S scavenger capacity given the kinetics of each sulfide scavenger system. The longer the duration, the better the capacity.
In this test, methane containing 15% H2S and 3% CO2 by weight is sparged via a fine pore frit (not shown) at 100 mL/min through a column of 20 g of scavenger solution (See FIG. 1). The fine bubbles produced rise slowly, providing plenty of time, plenty of surface area, and a short path through which the H2S must diffuse to the scavenger in the liquid 16. Detector 8 on the outlet line 20 is used to measure H2S concentration in the exiting gas. The times to first detection (FD), at a threshold of 15 ppm, and to complete breakthrough (BT), at the detector saturation of 4000 ppm (0.4%), are recorded. This test is designed to measure the effective scavenging capacity in applications with long contact times.
Note that the true total capacity of a scavenger with infinite time to react is simply equal to the stoichiometry of the reaction—the moles of H2S consumable per mole of scavenging molecule, which can be calculated. This Long Reaction Time Capacity measurement falls short of that ultimate stoichiometric capacity and so is still reaction rate dependent, just less so than the Short Reaction Time Capacity Test.

[2] = Storage Capacity Loss Test; format: physicochemical; conditions: for Min to BT / Min to FD: Short Reaction Time Capacity Test, diaminol in water + 10.00 g MeOH, 20 g test
Procedure: This test compares the scavenging capacity after 24 hours of storage of the scavenger system at room temperature to that after 72 hours of storage thereof at room temperature. In one embodiment, a sample of the scavenger system is made fresh and split in two portions. The Short Reaction Time Capacity Test is run on one portion after standing 24 hours on the bench at room temperature. Then the same test is run on the other portion after standing 72 hours on the bench at room temperature. The two measured capacities are compared to see if the product degrades in storage. Importantly, some scavengers lose activity with time due to secondary reactions and re-equilibrations that degrade their active form.
Table 5 compares different alkyl substituents on glyoxy alkyl diaminols. These compounds were prepared by reacting one mole of glyoxal, as a 40% aqueous solution, with 2.1 moles of various primary amines in a sufficient amount of MeOH to keep the product from separating into an aqueous layer and a non-aqueous layer. For each amine substituent: methyl (Me), ethyl (Et), normal-propyl (n-Pr), iso-propyl (i-Pr), and iso-propanol [1-propan-2-ol] (i-PrOH), the presence or absence of alpha branching on that substituent is noted. The weight ratios of the diaminols, water, and MeOH, are listed, along with their equivalent weights (Eq. Wt.) and the total equivalents per 20 g test (Eq/test). To measure the product stability, the Storage Capacity Loss between 24 and 72 hours was determined. As described earlier, a fresh sample of the scavenger system is split in two portions. The Short Reaction Time Capacity Test is run on one portion after standing 24 hours on the bench at room temperature. Then the same test is run on the other portion after standing 72 hours on the bench at room temperature. Both the 24-hr and 72-hr capacities (Min to FD and BT) and molar capacities (Min/Eq FD and BT) are listed in the table with the percent capacity loss for each substituent calculated below it. […] The others lost 34% to 77% of their scavenging capacity in 48 hours (72-24), presumably due to secondary reactions and re-equilibrations that degraded their active form. In this system employing only methanol, all of these compositions failed both the Hot Spray Fouling Test and the Spent Water Flowability Test. Two of them, the iso-propylamine [propan-2-amine] and the iso-propanolamine [1-aminopropan-2-ol] passed the Spent Solids Fouling Test.

[3] = Spent Solids Fouling Test; format: physicochemical; conditions: Table 5, glyoxy alkyl diaminol in water and MeOH only
Text: In every application, the active component of the scavenger system reacts with H2S to from a reaction product. Once all the active scavenger has been so reacted, it is spent. […] Thioethers are much less water soluble than amines, so the reaction products are often insoluble. Thioether bridges also connect spent scavenger molecules to each other, thereby forming insoluble polymeric solids. These solids accumulate and foul (interfere with the function) of the vessel, line, or equipment to which the scavenger is being fed. […] If any solids or insoluble viscous liquids are observed poorly dispersed in the spent scavenger system or clinging to the sides of the vessel, the scavenging system employed in that Long Reaction Time Capacity Test fails this test. A homogeneous, single-phase solution or thin layer of readily flowable non-sticking liquid constitutes a pass.

[4] = operational testing in a natural gas production facility
Procedure: In operational testing in a natural gas production facility, both an anhydrous glyoxy isopropyl aminacetal (GIDAc) scavenging system and an aqueous glyoxy isopropyl diaminol (GIDA) scavenging system were tested in comparison with an industry standard triazine-based scavenger.

[5] = Eq/test Triazine 0.068, GIDAc 0.185, GIDA 0.076
[6] = Triazine 7.50 g + 12.50 g water, GIDAc 13.00 g as GID + 7.00 g MeOH, GIDA 6.68 g as GID, 3.32 g water, 8.00 g MeOH, 2.00 g BuOH
[7] = 72-24 Hrs storage at room temperature
[8] = Sample Age 24 Hrs at room temperature
[9] = Sample Age 72 Hrs at room temperature

CC(C)NC(O)C(O)NC(C)C (stereo not shown) [GIDA, 1,2-bis[(propan-2-yl)amino]ethane-1,2-diol]
Min/Eq BT [1, 5]: 805 Min/Eq
Min/Eq FD [1, 5]: 607 Min/Eq
Min to BT [1, 6]: 61 min
Min to FD [1, 6]: 46 min
BT Capacity Loss [2, 7]: −2%
FD Capacity Loss [2, 7]: 0%
Min/Eq BT ([2]; Sample Age 24 Hrs): 528 Min/Eq
Min/Eq FD ([2]; Sample Age 24 Hrs): 409 Min/Eq
Min to BT [2, 8]: 40 min
Min to FD [2, 8]: 31 min
Min/Eq BT ([2]; Sample Age 72 Hrs): 541 Min/Eq
Min/Eq FD ([2]; Sample Age 72 Hrs): 409 Min/Eq
Min to BT [2, 9]: 41 min
Min to FD [2, 9]: 31 min
loss of scavenging capacity (degradation) in storage ([2]; in 48 hours (72-24), room temperature): no degradation
Spent Solids Fouling ([3]; listed as i-Pr): Pass
Spent Solids Fouling ([3]; listed as iso-propylamine): passed
H2S removal on a pound-per-pound basis ([4]; compared with the triazine-based scavenging system): significantly higher H2S removal
employable in scavenging H2S from natural gas ([4]; natural gas production facility): employable
